Reference: patent publication US11839623B2, “Antiviral prodrugs and formulations thereof” (BOARD OF REGENTS OF THE UNIVERSITY OF NEBRASKA, priority 2018, dated 2023)
Where “and” joins values, the source holds several entries; their conditions need not be identical. Identical values can stand only once.

Legend:
[1] = system: monocyte-derived macrophages (MDM); assay: Intracellular level of CBV-TP in MDM treated with 10 μM ABC or ABC ProTides; format: cell-based; details: 10 μM drug; for maximum CBV-TP levels: 3-48 hours; for percentage decrease of intracellular CBV-TP from Cmax at 48 hours: (Cmax−Cmin)/(Cmax)*100
Experimental: (§1) Cell model for in vitro studies: Human peripheral blood monocytes were obtained and cultured as described (Gendelman, et al., J. Exp. Med. (1988) 167:1428-1441). Briefly, human peripheral blood monocytes were obtained by leukapheresis from HIV-1/2 and hepatitis B seronegative donors, followed by purification via countercurrent centrifugal elutriation. Elutriated monocytes were cultured as adherent cells in Dulbecco's […] medium (DMEM) supplemented with 10% heat-inactivated pooled human serum, 10 μg/mL ciprofloxacin, 50 μg/mL gentamicin, and 1000 U/mL recombinant macrophage colony stimulating factor. Cells were maintained at 37° C. in a 5% CO2 incubator. Seven days later, differentiated macrophages (MDM) were used for the experiments.
Intracellular level of CBV-TP of ABC and its ProTides: Intracellular levels of CBV-TP were measured as described (Balzarini, et al., FEBS Lett. (2004) 573:38-44). MDM were treated with 10 μM ABC and ABC ProTides. At 3, 6, 12, 24 and 48 hours after treatment, MDM were washed with PBS to remove excess free drug. The cells were then collected in 70% methanol. CBV-TP from MDM was extracted and quantitated by LC-MS/MS as described (Gautam, et al., J. Pharm. Biomed. Anal. (2018) 153:248-259). Sep-Pak QMA cartridges (360 mg, 37-55 μm; Waters) were used to separate CBV-TP from their mono- and di-phosphates counterparts. The QMA cartridges were conditioned with 10 ml of 500 mM KCl followed by 10 ml of 5 mM KCl. Samples were loaded onto the cartridges and washed with 15 ml of 75 mM KCl. The triphosphate fraction was eluted with 3 ml of 500 mM KCl and collected for de-phosphorylation. The pH of the TP fraction was lowered to 4.25 by adding 15 μl ammonium acetate buffer (pH 4.10 mM) per ml eluate, and dephosphorylated by adding one unit of type XA sweet potato acid phosphatase per ml eluate and incubating at 37° C. for 30 minutes. The ^15N2^13C-3TC and d4-ABC internal standard was added at this point. Samples were then loaded onto Waters OASIS® HLB cartridges (60 mg, 30 μm; Waters) pre-conditioned with 3 ml MeOH and 3 ml H2O, and washed with 3.5 ml H2O to remove salts. The nucleosides of interest were then eluted with 1.5 ml of MeOH and evaporated under vacuum. Once dry, the residue was reconstituted with a 100 μl of 25% MeOH and stored in the −20° C. freezer until the time of LC-MS/MS analyses. The LC-MS/MS system comprised of a Waters ACQUITY ultra-performance liquid chromatography (UPLC) system (Waters, Milford, Mass.) coupled to a triple quadrupole mass spectrometer with electrospray ionization (ESI) source (Waters Xevo TQ-XS). For the indirect quantification of TPs, chromatographic separation was performed with an ACQUITY UPLC using CSH analytical column (2.1×100 mm, 1.7 μm; Waters) equipped with a guard column (Waters, Milford, Mass.). Mobile phase A consisted of ammonium bicarbonate (pH 7, 7.5 mM) and mobile phase B was methanol. The flow rate was 0.25 ml/minute. […] Mobile phase B was then reset to 12% over 0.25 minutes and the column was equilibrated for 2.75 minutes before the next injection. The total run time was 13 minutes. The mass spectrometer was operated in the positive ion mode using multiple reaction monitoring (MRM). The following transitions were monitored: m/z 230→112 for 3TC, m/z 248→152 for CBV, m/z 287→191 for ABC, m/z 233→115 for the internal standard (IS) ^15N2^13C-3TC, and m/z 291→195 for IS d4-ABC. 3TC, CBV, ABC, ^15N2^13C-3TC, and d4-ABC were detected at a cone voltage of 22, 2, 4, 12, and 2 V, respectively, and a collision energy of 12, 12, 20, 10, and 20 V, respectively.

[2] = system: monocyte-derived macrophages (MDM); assay: Cell viability of ABC and its ProTides in MDM (CCK-8); format: cell-based, human
Experimental: Cell viability of ABC and its ProTides: A CCK-8 Kit was purchased from Dojindo (Rockville, Md.) and used to test cell viability after treatment with ABC and its ProTides. Briefly, MDM plated in a 96-well plate were treated with 100 μl of 0-400 μM ABC and its ProTides for 24 hours. Drug containing medium was removed and replaced with fresh medium. Ten μl of CCK-8 solution was added to each well followed by incubation of the plate for 2 hours at 37° C. The absorbance (at 450 nm) of each well was measured using a microplate reader. The cell viability was calculated according to manufacturer's instructions.

HIV-1ADA [3] = assay: Antiretroviral activity of ABC and its ProTides against HIV-1ADA in MDM (RT activity); format: cell-based; details: human MDM, RT activity day 10 post infection
Experimental: as §1
Antiretroviral activity of ABC and its ProTides: The antiviral activities of native ABC and ABC ProTides against HIV-1ADA were determined in MDM as described (Singh, et al., Nanomedicine (2016) 11:1913-1927). MDM were incubated with various concentrations of ABC or ABC ProTides for 60 minutes followed by infection with HIV-1ADA at a multiplicity of infection (MOI) of 0.01 for 4 hours. […] At day 10 post infection, supernatants were collected and analyzed for HIV-1 reverse transcriptase (RT) activity (Kalter, et al., J. Clin. Microbiol. (1992) 30:993-995).

Stability assay in serum = format: in vitro ADME, human; details: 37° C., 24 hours, 15 μg/ml
Experimental: Stability Assay in Serum: The experiment was carried out by adding each ProTide into 100 μl human serum to reach a final concentration of 15 μg/ml in glass vial, and duplicate samples were used for each ProTide. After incubating the samples at 37° C. with shaking for 24 hours, 900 μl of MeOH was added to stop the reaction. Samples were vortexed for 3 minutes, then centrifuged down at 16,000 g for 10 minutes. The supernatants were transfer to new 2 ml tubes and evaporated to dryness under vacuum. The samples were reconstituted using 50 μl of MeOH, vortexed for 3 minutes and centrifuged down at 16,000 g for 10 minutes. The supernatants were analyzed by HPLC for drug concentrations. For control sample (0 minute), MeOH were added first to stop the enzyme before adding the ProTides.

HIV-1ADA [4] = assay: Antiretroviral efficacy of ABC, PABC, NPABC in MDM challenged with HIV-1ADA (RT activity, p24); format: cell-based; details: 100 μM 8 hours
Experimental: Antiretroviral activities. Antiretroviral efficacy was determined by measurements of HIV reverse transcriptase (RT) activity. For IC50 determination, MDM were exposed to various concentrations (0.01-1000 nM) of ABC, MABC or PABC for 1 hour followed by challenge with HIV-1ADA at a multiplicity of infection (MOI) of 0.1 infectious particles per cell for 4 hours. Following viral challenge, cells were washed and incubated with the same concentration of drug used before infection for an additional 10 days in culture. Culture fluids were collected on day 10 for the measurement of RT activity. To assess antiretroviral efficacy, MDM were treated with 100 μM ABC, PABC or NPABC as described above for 8 hours. After treatment, cells were washed with PBS and cultured with fresh media, with half-media exchanges every other day. At 0, 4, 12 hours, and 1, 5, 10, 15 or 20 days after treatment, cells were challenged with HIV-1ADA at an MOI of 0.1 infectious particles per cell for 16 hours. After viral infection, the cells were cultured an additional 10 days with half-media exchanges every other day. […] Cells were fixed with 4% PFA and expression of HIV-1 p24 antigen was determined by immunocytochemistry.
Significant improvements in MDM antiretroviral efficacy were also observed for PABC and NPABC. […] HIV-1 p24 was not detected in the PABC or NPABC-treated groups at the measured timepoints (FIG. 6). […]

HIV-1ADA [5] = assay: IC50 determination of ABC, MABC, PABC in MDM challenged with HIV-1ADA (RT activity); format: cell-based; details: HIV-1ADA MOI 0.1, RT activity day 10, read-out: IC50 on reverse transcriptase
Experimental: Antiretroviral activities. Antiretroviral efficacy was determined by measurements of HIV reverse transcriptase (RT) activity. For IC50 determination, MDM were exposed to various concentrations (0.01-1000 nM) of ABC, MABC or PABC for 1 hour followed by challenge with HIV-1ADA at a multiplicity of infection (MOI) of 0.1 infectious particles per cell for 4 hours. Following viral challenge, cells were washed and incubated with the same concentration of drug used before infection for an additional 10 days in culture. Culture fluids were collected on day 10 for the measurement of RT activity. To assess antiretroviral efficacy, MDM were treated with 100 μM ABC, PABC or NPABC as described above for 8 hours. After treatment, cells were washed with PBS and cultured with fresh media, with half-media exchanges every other day. At 0, 4, 12 hours, and 1, 5, 10, 15 or 20 days after treatment, cells were challenged with HIV-1ADA at an MOI of 0.1 infectious particles per cell for 16 hours. After viral infection, the cells were cultured an additional 10 days with half-media exchanges every other day. Culture fluids were collected for measurement of RT activity. Cells were fixed with 4% PFA and expression of HIV-1 p24 antigen was determined by immunocytochemistry.

[6] = Characterization of NPABC nanoparticles (DLS, drug loading); format: physicochemical; details: PABC nanocrystals
From the text: The LASER ProTide nanocrystals (NPABC, NP3TC, NPFTC and NPTFV) may be coated with either cell or tissue receptor targeted or non-targeted poloxamer 407 (P407), poloxamer 338 (P338), 1,2-distearoyl-sn-glycero-3-phosphocholine (DSPC), 1,2-distearoyl-sn-glycero-3-phosphoethanolamine-N-carboxy(polyethylene glycol)-2000 (DSPE-PEG) or polyvinyl alcohol (PVA). The nanocrystals may also be stabilized with polysorbate and polyethylene glycol surfactants. Here, a drug to surfactant ratio of 2:1 by weight was used to manufacture NPABC nanoparticles. Briefly, 1-5% (w/v) PABC and 0.5-2.5% (w/v) P407 were mixed in sterile phosphate buffer. The premixed suspensions were nanoformulated by wet milling or high-pressure homogenization at 20,000-psi until desirable size and polydispersity index were achieved. The LASER ProTide nanoformulations were characterized for particle size, polydispersity index (PDI) and zeta potential by dynamic light scattering (DLS). […] For P407-PABC nanoparticles (NPABC), the average size (diameter) was 350 nm, the PDI was 0.28, and the charge was −21.4 mV.
Nanoparticle morphology was determined by scanning electron microscopy (SEM). UPLC MS/MS was used for drug quantitation. The conversion of ABC to PABC facilitated production of stable nanocrystals with a drug loading capacity of more than 70%.

prodrug hydrolyzed/degraded in human serum (Stability assay in serum) | IC50 (HIV-1ADA [5]) | drug loading capacity [6] | Compound | maximum CBV-TP levels [1] | CBV-TP levels at 48 hours [1] | percentage decrease of intracellular CBV-TP from Cmax at 48 hours [1] | mitochondrial activity compared to ABC ([2]; 400 μM) | EC50 (HIV-1ADA [3]) | cell viability difference versus ABC ([2]; all tested drug concentrations (0-400 μM)) | antiretroviral activity compared to ABC (HIV-1ADA [4]) | HIV-1 p24 (HIV-1ADA [4]; challenge after 1-20 days)
 |  |  | COC(=O)C(C)NP(=O)(OCC1C=CC(n2cnc3c(NC4CC4)nc(N)nc32)C1)Oc1ccccc1 (mixture of isomers) [M1ABC] | 35650 fmol per million cells | 789 fmol per million cells | 97% and 97.8% | differences in mitochondrial activity were seen | 1.8 nM |  |  | 
Nineteen percent |  |  | CCCCCCCCCCCCCCCCCCCCCCOC(=O)C(Cc1ccccc1)NP(=O)(OCC1C=CC(n2cnc3c(NC4CC4)nc(N)nc32)C1)Oc1ccccc1 (mixture of isomers) [M3ABC] | 541 fmol per million cells | 230 fmol per million cells | 57% and 57.3% |  | 7 nM | No significant differences |  | 
 | 20.5 nM | more than 70% | CCCCCCCCCCCCCCCCCCCCCCOC(=O)C(Cc1ccccc1)NP(=O)(OCC1C=CC(n2cnc3c(NC4CC4)nc(N)nc32)C1)Oc1ccccc1 (mixture of isomers) [PABC] |  |  |  |  |  |  | enhanced antiretroviral activity | not detected
